row,melting point [°C],Compound
1,250,O=c1ccc(S(=O)(=O)c2[nH]c3ccccc3c2Cl)n[nH]1
2,93 to 95,CC(C)NC(=O)N1CCC(O[N+](=O)[O-])CC1
3,257 to 259,NS(=O)(=O)c1ccc(N2CN(c3ccccc3)CC2=O)cc1Cl
4,134 to 138,ClCCOc1cc(-c2cccs2)n[nH]1
5,155,O=C(CCc1nc(-c2ccccn2)no1)NC1CCN(Cc2ccc(Cl)c(Cl)c2)CC1
6,95.4 to 96.5,CC(=NO)c1ncnc(OC(C)C)c1C
7,177 to 179,CCC(=O)N1CCC(NC(=O)NC2CCCCC2)CC1
8,148 to 150,O=c1n(-c2cc(OCCCl)c(Cl)cc2Cl)nc2n1CCCC2
9,132 to 135,O=C(c1ccc(F)cc1)C1CCN(CC(O)c2cc(Br)no2)CC1 (stereo unspecified)
10,48 to 50,C=C(C)Cn1c(=O)c2ccccc2n1C(=O)OCC
11,89 to 91,CCCCCCCCCCCCc1nnn(CC(=O)O)n1
12,93 to 96,COC(=O)c1ccc(SC#N)c([N+](=O)[O-])c1
13,107 to 108,CC(C)Oc1nn(CCO)cc1C(=O)NCc1ccc(C(F)(F)F)cc1
14,97 to 108,Cc1cc(N2CCOCC2)nc(N)c1N
15,150,Cc1cc(SC2=C(O)CC(CCc3ccc(O)cc3)(CCc3ccc(O)cc3)OC2=O)c(C(C)(C)C)cc1OS(=O)(=O)N1CCN(C)CC1
16,148 to 150,COc1ccccc1C=CC(=O)C1=C(O)C(=C(C)Nc2ccccc2N)C(=O)OC1=O
17,80 to 81,CCCCCCCCOC(=O)/C(C#N)=C/C=C/N(C)C
18,270 to 272,NC1=NN(c2nc3ccccc3s2)C(c2ccccc2)C1 (stereo unspecified)
19,191 to 192,CCOC(=O)N1CCN(c2cc3ccccc3c(=O)[nH]2)CC1
20,115 to 116,CC(=O)SC(CC(=O)c1ccccc1Cl)C(=O)O (stereo unspecified)

row,melting point [°C],Compound
1,247 to 248,O=C(Nc1cccc2c1C(=O)c1c-2n[nH]c1[C@H]1CC[C@H](C(=O)N2CCNCC2)CC1)NN1CCOCC1
2,102 to 104,COC(=O)c1cc(C(=O)OC)c(Br)cn1
3,> 250,CC(C)(C)NC(=O)Nc1nc2nc(N)ncc2cc1-c1ccccc1
4,207,O=C(C[C@@H](O)C(F)(F)F)N[C@H]1CC[C@H](CCN2CCN(c3nccc4c3CCO4)CC2)CC1
5,141 to 143,CCN(CC)c1ccc(C2(c3ccc(N(CC)CC)cc3N(CC)CC)OC(=O)c3ccccc32)c(Cl)c1 (stereo unspecified)
6,88,Cc1cc(-n2ccnc2)c2cccc(OCc3c(Cl)ccc(S(=O)(=O)N4CCC[C@H]4C(=O)N(C)C)c3Cl)c2n1
7,51 to 53,CCCNC(=S)n1nc(Oc2ncc(C(F)(F)F)cc2Cl)cc1C
8,180 to 181,O=C(Nc1ccccc1)OCC1c2ccccc2Oc2ccccc21
9,134 to 135,O=C(O)c1cc([N+](=O)[O-])ccc1OC(F)(F)F
10,184 to 185,Oc1cc(C(F)(F)F)nc2cc(C(F)(F)F)ccc12
11,211 to 213,Nc1cc(=O)nc(Nc2ccccc2)n1-c1ccc(Br)cc1
12,92 to 93,CC(=O)SCC1CN2CCCC(C(=O)OC(C)(C)C)N2C1=O (stereo unspecified)
13,183 to 186,CCOCc1nc2c(N)nc3ccccc3c2n1CCOCCNC(=O)Nc1ccccc1
14,120 to 122,CCCCC(O)c1cccc(O)c1 (stereo unspecified)
15,262 to 264,Oc1cc(Br)nnc1-c1ccc(Cl)cc1
16,89 to 91,COc1ccc(CNC(=O)[C@@H](NC(=O)[C@H](NCc2ccc(N(C)C)cc2)[C@H](O)[C@H](Cc2ccccc2)NC(=O)OC(C)(C)C)C(C)C)c(O)c1
17,156 to 158,CC(=O)n1nc(-c2ccncc2)nc1-c1ccncc1
18,169,CS(=O)(=O)c1ccc(-c2cc(C(=O)c3ccc(Cl)cc3)sc2N2CCOCC2)cc1
19,290,O=c1[nH]c2c(c3nc(-c4ccccn4)nn13)CN(Cc1ccccc1)CC2
20,105 to 106,CCOC(=O)/C=C/c1cn(-c2ccccc2)nc1OCc1ccccc1

row,melting point [°C],Compound
1,77,CN(C)CCCC(N)=S
2,138 to 140,C#CCN1CCN(C2=Nc3cc(Cl)ccc3Nc3ccccc32)CC1
3,> 300,CCc1nc(C)cn1-c1cc2c(cc1C(F)(F)F)[nH]c(=O)c1nnc(CP(=O)(O)O)n12
4,225,CC(=O)c1nc2cc(C(F)(F)F)c(Cl)cc2n1-c1ccc(CCNC(=O)NS(=O)(=O)c2ccc(C)cc2)cc1
5,113 to 115,COc1ccc(COC(=O)CC(=O)Oc2cc(-c3cn4c(n3)sc3ccccc34)ccc2Cl)cc1
6,166,O=S1(=O)C=CC(c2ccccc2)(c2ccccc2)CC1
7,76 to 78,CCC(=O)SCC(CC(=O)c1ccccc1)C(=O)O (stereo unspecified)
8,201 to 203,CC(=O)OCc1c(C#N)cnc2c(NC(=O)c3c(Cl)cccc3Cl)cccc12
9,77 to 79,CCc1nccn1CC(=O)c1ccc(-c2ccc(N3C[C@H](Cn4ccnn4)OC3=O)cc2F)cn1
10,129 to 131,COc1ccc(-c2cc3cc(OC)cc(C=C(Cl)Cl)c3o2)cc1
11,198 to 200,CC(=O)OCC1Cc2cccc3c(C4=C(c5cn(C)c6ccccc56)C(=O)OC4=O)cn(c23)C1 (stereo unspecified)
12,224 to 225,O=C(Nc1nc(/C=C/c2ccc([N+](=O)[O-])cc2)cs1)c1ccccc1
13,136 to 138,CN1c2ccc(Cl)cc2C(c2ccccc2F)=Nc2cccnc21
14,218 to 220,COC(=O)CCn1c2ccc(O)cc2c2c3c(c(-c4ccccc4Cl)cc21)C(=O)NC3=O
15,153,CC(=O)NCCOc1ccc(-c2ccc(=O)n(Cc3ccc(Cl)cc3F)c2)cc1
16,158 to 160,COC(=O)c1cc(C=O)c(NS(C)(=O)=O)c([N+](=O)[O-])c1
17,55 to 57,CN1C(=O)CC[C@]2(C)c3ccc(-c4ccc(C(F)(F)F)cc4[N+](=O)[O-])cc3CC[C@@H]12
18,66 to 69,CCOC(=O)C(Nc1ccc(C(=O)OC)cc1)C(=O)OCC

# More lines, now with the values behind:
row,Compound,melting point [°C]
1,O=C1c2c(ccc3c2OCCO3)S(=O)(=O)N1CCCCBr,135 to 136
2,O=C(OCCO)c1ncn2c1[C@@H]1CCCN1C(=O)c1sccc1-2,182 to 184
3,N#Cc1ccc(CC(NC(=O)C(Cc2ccccc2)S(=O)(=O)Nc2ccc3ccccc3c2)C(=O)N2CCCCC2)cc1 (stereo unspecified),210
4,O=C1NCCN1c1ccc(S(=O)(=O)Nc2cccc(Br)c2)cc1,184 to 185
5,O=C(Cl)Cc1ccc(-c2ccc(F)cc2F)c(F)c1,70 to 73
6,OC(c1cccc(F)c1)C1CCCCN1 (stereo unspecified),146 to 148
7,CCC(=O)NS(=O)(=O)c1ccc(C2=C(c3ccccc3)C(=O)C(C)(C)O2)cc1Cl,191 to 192
8,COc1ccc(/C=C(\C#N)c2ccccc2Cl)cc1OC1CCCC1,94 to 95
9,CCc1ccc(Cc2cn(C3OC(COC(=O)c4ccccc4)C(F)C(OC(=O)c4ccccc4)C3OC(=O)c3ccccc3)c3cccc(Cl)c23)cc1 (stereo unspecified),137 to 138
10,Clc1cnc(N2CCNCC2)c(Cl)n1,89 to 97
11,CCCCOc1ccccc1Nc1ncc(C(=O)O)c(=O)[nH]1,212 to 214
12,CCc1ccc2oc(=O)c(NC(=O)Nc3ccc(F)cc3F)c(-c3ccccc3C)c2c1,210 to 211
13,CC(=O)C(=O)NCc1nnc(C)n1-c1cc(Cl)cc(C(=O)c2ccccc2Cl)c1,178 to 180
14,CCOC(=O)c1ccc(Nc2ncccc2NS(=O)(=O)c2ccc(OC)cc2)cc1,172 to 173
15,Oc1ccc(C2CC(c3ccc(O)cc3)C2)cc1 (stereo unspecified),148 to 164
16,CSC(=S)N(C)N=Cc1ccco1,103
17,COc1cc(-c2nc3ccccc3n2Cc2ccc(Cl)c(Cl)c2)cc(OC)c1OC,145
18,Cn1ccnc1S(=O)(=O)c1ccc(Cl)cc1,164 to 166
19,O=c1c2cccc(Cl)c2nc2n1CCCO2,207 to 208
20,CCCCc1nn(-c2cc([N+](=O)[O-])ccc2Br)c(=O)n1Cc1ccc(-c2ccccc2S(=O)(=O)NC(C)(C)C)cc1,126 to 128
21,O=c1ccc(S(=O)(=O)c2cc3ccccc3s2)n[nH]1,209 to 210
22,O=C(CS)N[C@@H](CS)C(=O)O,121

row,Compound,melting point [°C]
1,COc1cc(C#N)ccc1C(Br)C(Br)C(=O)c1ccc(C#N)cc1 (stereo unspecified),163 to 165
2,Cc1cc2cnc(OCCc3ccc(OC(C)(C)C)cc3)nc2o1,75
3,CO[C@@H]1[C@@H](OC)[C@H](C)O[C@@H](OC(=O)Nc2ccc(-c3ncn(-c4ccc(OC(F)(F)F)cc4)n3)cc2)[C@@H]1OC,186 to 188
4,CONCc1nc2cnc3ccccc3c2n1CC1CCOCC1,58 to 63
5,COc1cc(CCCOS(C)(=O)=O)ccc1OCc1coc(/C=C/c2ccccc2)n1,130 to 131
6,COc1cc(OCC(=O)O)c(C)cc1SCc1ccc(-c2ccc(C(F)(F)F)cc2)cc1,170 to 171
7,Nc1nc(Cl)cc(C=C(Cl)Cl)n1,119 to 120
8,COc1cc(C(=O)CCl)ccc1O,102 to 103
9,CC(C)OC(=O)C=Cc1cc(-n2c(=O)cc(C(F)(F)F)n(C)c2=O)c(F)cc1Cl,137 to 139
10,C#CCOc1cc(Oc2ccc(Cl)cc2)ncn1,100
11,CC(C)(C)OC(=O)N1CCC(c2c(F)cc(N3C[C@H](CN=[N+]=[N-])OC3=O)cc2F)CC1,125 to 127
12,Cc1nnc2c3ccc(Cl)cc3c(-c3ccccc3)nn12,236 to 238
13,COc1ccc(-c2cnc[nH]c2=O)cc1OC,205 to 206
14,O=C1CCC(c2ccc(C3=NNC(=O)CC3)cc2)=NN1,> 250
15,CC(C(=O)O)c1ccc2nc(-c3ccccc3)oc2c1 (stereo unspecified),132
16,CCOC(=O)c1cnc2[nH]ncc2c1O,275
17,IC(I)=C(I)Cn1ncnn1,92 to 93
18,Cn1c(=O)c2c(ncn2CCCN2CCC(NC(=O)c3ccc(F)cc3)CC2)n(C)c1=O,192 to 193
19,COc1cccc(Oc2cccc(C#CC(C)N(O)C(N)=O)c2)n1 (stereo unspecified),90 to 91
20,C=CCSc1nc2ccc(OCC)cc2[nH]1,147 to 149
21,c1cnc2[nH]cc(CN3CCN(c4ccc5c(c4)OCO5)CC3)c2c1,196 to 199

# Reference: a melting point compilation (Tetko et al.; mined from patent text by program, amines drawn as free bases though some values may be those of a salt)
